The values that follow come from ChEMBL document CHEMBL1671730, “Rapid and sensitive liquid chromatography/mass spectrometry assay for caspofungin in human aqueous humor” (Antimicrob Agents Chemother, 2010).

Structures are written as SMILES.

Format in all cases: ADME, organism-based, Aqueous humor of eyeball
Common to all, as to conditions: in vivo

Data set [1] is filed under the species Homo sapiens. Put plainly: Drug level in human aqueous humor sample measured on basis of intraday target compound concentration of 4000 ng/ml by LC/MS method.
The species named for data set [2] is Homo sapiens. As to the kind of experiment: Drug level in human aqueous humor sample measured on basis of interday target compound concentration of 30 ng/ml by LC/MS method.
Data set [3] is filed under the species Homo sapiens. As to the kind of experiment: Drug level in human aqueous humor sample measured on basis of intraday target compound concentration of 300 ng/ml by LC/MS method.
For data set [4], the species on record is Homo sapiens. As to the kind of experiment: Drug level in human aqueous humor sample measured on basis of intraday target compound concentration of 30 ng/ml by LC/MS method.
The species named for data set [5] is Homo sapiens. Put plainly: Drug level in human aqueous humor sample measured on basis of interday target compound concentration of 300 ng/ml by LC/MS method.
Data set [6] is filed under the species Homo sapiens. As to the kind of experiment: Drug level in human aqueous humor sample measured on basis of interday target compound concentration of 4000 ng/ml by LC/MS method.

As for `CC[C@H](C)C[C@H](C)CCCCCCCCC(=O)N[C@H]1C[C@@H](O)[C@@H](NCCN)NC(=O)[C@@H]2[C@@H](O)CCN2C(=O)[C@H]([C@H](O)CCN)NC(=O)[C@H]([C@H](O)[C@@H](O)c2ccc(O)cc2)NC(=O)[C@@H]2C[C@@H](O)CN2C(=O)[C@H]([C@@H](C)O)NC1=O` [CASPOFUNGIN], the Drug uptake in the data set filed under Homo sapiens [1] worked out at 3986 ng/mL; in the data set listed under Homo sapiens [2], 31.4 ng/mL; in the data set filed under Homo sapiens [3], 280 ng/mL; in the data set filed under Homo sapiens [4], 26.9 ng/mL; in the data set filed under Homo sapiens [5], 282 ng/mL; in the data set filed under Homo sapiens [6], 3965 ng/mL.
